From ChEMBL document CHEMBL1649584, “Overexpression of the naturally occurring blaOXA-51 gene in Acinetobacter baumannii mediated by novel insertion sequence ISAba9” (2009)
In brackets after ≈: the same amount, converted by molar mass.

How the values were obtained:
Format in all cases: functional
Acinetobacter baumannii [1] = assay: Antimicrobial activity against Acinetobacter baumannii isolate Ab11 overexpressing beta-lactamase OXA-51 gene mediated by novel insertion sequence ISAba9
Acinetobacter baumannii [2] = assay: Antimicrobial activity against Acinetobacter baumannii isolate Ab133 overexpressing beta-lactamase OXA-51 gene mediated by novel insertion sequence ISAba9
Acinetobacter baumannii [3] = assay: Antimicrobial activity against Acinetobacter baumannii isolate Ab150 overexpressing beta-lactamase OXA-51 gene mediated by novel insertion sequence ISAba9
Acinetobacter baumannii [4] = assay: Antimicrobial activity against Acinetobacter baumannii isolate Ab168 overexpressing beta-lactamase OXA-51 gene mediated by novel insertion sequence ISAba9
Acinetobacter baumannii [5] = assay: Antimicrobial activity against Acinetobacter baumannii isolate Ab12 overexpressing beta-lactamase OXA-51 gene mediated by novel insertion sequence ISAba9
Acinetobacter baumannii [6] = assay: Antimicrobial activity against Acinetobacter baumannii isolate Ab30 overexpressing beta-lactamase OXA-51 gene mediated by novel insertion sequence ISAba9
Acinetobacter baumannii [7] = assay: Antimicrobial activity against Acinetobacter baumannii isolate Ab58 overexpressing beta-lactamase OXA-51 gene mediated by novel insertion sequence ISAba9
Acinetobacter baumannii [8] = assay: Antimicrobial activity against Acinetobacter baumannii isolate Ab177 overexpressing beta-lactamase OXA-51 gene mediated by novel insertion sequence ISAba9
Acinetobacter baumannii [9] = assay: Antimicrobial activity against Acinetobacter baumannii isolate Ab33 overexpressing beta-lactamase OXA-51 gene mediated by novel insertion sequence ISAba9
Acinetobacter baumannii [10] = assay: Antimicrobial activity against Acinetobacter baumannii isolate Ab63 overexpressing beta-lactamase OXA-51 gene mediated by novel insertion sequence ISAba9
Acinetobacter baumannii [11] = assay: Antimicrobial activity against Acinetobacter baumannii isolate Ab91 overexpressing beta-lactamase OXA-51 gene mediated by novel insertion sequence ISAba9
Acinetobacter baumannii [12] = assay: Antimicrobial activity against Acinetobacter baumannii isolate Ab153 overexpressing beta-lactamase OXA-51 gene mediated by novel insertion sequence ISAba9
Acinetobacter baumannii [13] = assay: Antimicrobial activity against Acinetobacter baumannii isolate Ab185 overexpressing beta-lactamase OXA-51 gene mediated by novel insertion sequence ISAba9
Acinetobacter baumannii [14] = assay: Antimicrobial activity against Acinetobacter baumannii isolate Ab108 overexpressing beta-lactamase OXA-51 gene mediated by novel insertion sequence ISAba9
Acinetobacter baumannii [15] = assay: Antimicrobial activity against Acinetobacter baumannii isolate Ab114 overexpressing beta-lactamase OXA-51 gene mediated by novel insertion sequence ISAba9
Acinetobacter baumannii [16] = assay: Antimicrobial activity against Acinetobacter baumannii isolate Ab181 overexpressing beta-lactamase OXA-51 gene mediated by novel insertion sequence ISAba9
Acinetobacter baumannii [17] = assay: Antimicrobial activity against Acinetobacter baumannii isolate Ab2 overexpressing beta-lactamase OXA-51 gene mediated by novel insertion sequence ISAba9
Acinetobacter baumannii [18] = assay: Antimicrobial activity against Acinetobacter baumannii isolate Ab5 overexpressing beta-lactamase OXA-51 gene mediated by novel insertion sequence ISAba9
Acinetobacter baumannii [19] = assay: Antimicrobial activity against Acinetobacter baumannii isolate Ab23 overexpressing beta-lactamase OXA-51 gene mediated by novel insertion sequence ISAba9
Acinetobacter baumannii [20] = assay: Antimicrobial activity against Acinetobacter baumannii isolate Ab3 overexpressing beta-lactamase OXA-51 gene mediated by novel insertion sequence ISAba9

Structure (SMILES): C[C@@H](O)[C@H]1C(=O)N2C(C(=O)O)=C(SCCNC=N)C[C@H]12 [IMIPENEM ANHYDROUS]
- MIC (Acinetobacter baumannii [1]): 64 µg/mL (≈ 214 µM)
- MIC (Acinetobacter baumannii [2]): 8 µg/mL (≈ 26.7 µM)
- MIC (Acinetobacter baumannii [3]): 16 µg/mL (≈ 53.4 µM)
- MIC (Acinetobacter baumannii [4]): 12 µg/mL (≈ 40.1 µM)
- MIC (Acinetobacter baumannii [5]): 64 µg/mL (≈ 214 µM)
- MIC (Acinetobacter baumannii [6]): 64 µg/mL (≈ 214 µM)
- MIC (Acinetobacter baumannii [7]): 16 µg/mL (≈ 53.4 µM)
- MIC (Acinetobacter baumannii [8]): 8 µg/mL (≈ 26.7 µM)
- MIC (Acinetobacter baumannii [9]): 64 µg/mL (≈ 214 µM)
- MIC (Acinetobacter baumannii [10]): 16 µg/mL (≈ 53.4 µM)
- MIC (Acinetobacter baumannii [11]): 16 µg/mL (≈ 53.4 µM)
- MIC (Acinetobacter baumannii [12]): 16 µg/mL (≈ 53.4 µM)
- MIC (Acinetobacter baumannii [13]): 24 µg/mL (≈ 80.2 µM)
- MIC (Acinetobacter baumannii [14]): 16 µg/mL (≈ 53.4 µM)
- MIC (Acinetobacter baumannii [15]): 16 µg/mL (≈ 53.4 µM)
- MIC (Acinetobacter baumannii [16]): 32 µg/mL (≈ 107 µM)
- MIC (Acinetobacter baumannii [17]): 4 µg/mL (≈ 13.4 µM)
- MIC (Acinetobacter baumannii [18]): 64 µg/mL (≈ 214 µM)
- MIC (Acinetobacter baumannii [19]): 64 µg/mL (≈ 214 µM)
- MIC (Acinetobacter baumannii [20]): 8 µg/mL (≈ 26.7 µM)

Structure (SMILES): C[C@@H](O)[C@H]1C(=O)N2C(C(=O)O)=C(S[C@@H]3CN[C@H](C(=O)N(C)C)C3)[C@H](C)[C@H]12 [MEROPENEM]
- MIC (Acinetobacter baumannii [1]): 64 µg/mL (≈ 167 µM)
- MIC (Acinetobacter baumannii [2]): 8 µg/mL (≈ 20.9 µM)
- MIC (Acinetobacter baumannii [3]): 16 µg/mL (≈ 41.7 µM)
- MIC (Acinetobacter baumannii [4]): 12 µg/mL (≈ 31.3 µM)
- MIC (Acinetobacter baumannii [5]): 64 µg/mL (≈ 167 µM)
- MIC (Acinetobacter baumannii [6]): 64 µg/mL (≈ 167 µM)
- MIC (Acinetobacter baumannii [7]): 16 µg/mL (≈ 41.7 µM)
- MIC (Acinetobacter baumannii [8]): 8 µg/mL (≈ 20.9 µM)
- MIC (Acinetobacter baumannii [9]): 64 µg/mL (≈ 167 µM)
- MIC (Acinetobacter baumannii [10]): 16 µg/mL (≈ 41.7 µM)
- MIC (Acinetobacter baumannii [11]): 16 µg/mL (≈ 41.7 µM)
- MIC (Acinetobacter baumannii [12]): 16 µg/mL (≈ 41.7 µM)
- MIC (Acinetobacter baumannii [13]): 24 µg/mL (≈ 62.6 µM)
- MIC (Acinetobacter baumannii [14]): 16 µg/mL (≈ 41.7 µM)
- MIC (Acinetobacter baumannii [15]): 16 µg/mL (≈ 41.7 µM)
- MIC (Acinetobacter baumannii [16]): 32 µg/mL (≈ 83.4 µM)
- MIC (Acinetobacter baumannii [17]): 4 µg/mL (≈ 10.4 µM)
- MIC (Acinetobacter baumannii [18]): 64 µg/mL (≈ 167 µM)
- MIC (Acinetobacter baumannii [19]): 64 µg/mL (≈ 167 µM)
- MIC (Acinetobacter baumannii [20]): 8 µg/mL (≈ 20.9 µM)
